Tests used:
HIV-1 Bal [1] = assay: Antiviral EC50 in PBMCs against HIV-1 Bal; assay type: cell-based; details: linear regression analysis, one experiment with 6 replicates
HIV-1 Bal infected PBMCs = assay: Gag p24 production by infected PBMCs during 24 h ARV treatment (p24 capture ELISA); assay type: cell-based; details: 24 h treatment at 100x EC50, Gag p24 capture ELISA
Experimental: Figure 1 M48U1 has a memory effect on cell-associated virus. A) The Trojan Horse transmission concept was modeled in vitro using HIV-infected PBMCs which were treated for 24 h with antiretrovirals (ARVs) from different classes at 100x EC50 concentrations. Subsequently, virus production was quantified using a Gag p24 ELISA. To mimic escape from vaginal drug pressure, the infected cells were then incubated in ARV-free medium for three consecutive periods of 24 h. Infectivity of newly produced virions was determined after each period by titration in TZM-bl cells and PBMCs using equal amounts of p24. […] Values represent the 50% Tissue Culture Infective Dose (TCID50)/ml as measured in one experiment carried out in triplicate.
PHA/IL-2 stimulated PBMCs were infected with 2 x 10^-3 multiplicity of infection (MOI) of the CCR5-tropic subtype B strain Bal for three days and subsequently washed extensively to remove the inoculum (Figure 1A). […] The virions produced from these cultures were then quantified in quadruplicate by a Gag p24 capture ELISA [18].

HIV-1 Bal [2] = assay: Infectivity of de novo virus from pretreated, washed infected PBMCs (memory effect); assay type: cell-based; details: for relative titer of de novo produced virions: PBMCs pretreated 24 h at 100x EC50, washed, 24 h drug-free, titrated on TZM-bl cells with equal p24, relative to untreated control
Experimental: Figure 1 M48U1 has a memory effect on cell-associated virus. A) The Trojan Horse transmission concept was modeled in vitro using HIV-infected PBMCs which were treated for 24 h with antiretrovirals (ARVs) from different classes at 100x EC50 concentrations. Subsequently, virus production was quantified using a Gag p24 ELISA. To mimic escape from vaginal drug pressure, the infected cells were then incubated in ARV-free medium for three consecutive periods of 24 h. Infectivity of newly produced virions was determined after each period by titration in TZM-bl cells and PBMCs using equal amounts of p24. B) Production of Gag p24 by infected PBMCs during 24 h treatment with eleven ARVs: the non-nucleoside reverse transcriptase inhibitors (NNRTIs; blue) UC781 and TMC120, the nucleotide reverse transcriptase inhibitor tenofovir (PMPA; red), the entry inhibitors (grey) maraviroc (MVC), T-20, C34-chol, griffithsin (GRFT) and M48U1, the protease inhibitors (green) lopinavir (LPV) and saquinavir (SQV), and the integrase inhibitor raltegravir (RAL). Values are expressed relative to untreated control cultures and represent the mean +/− SEM of at least three independent experiments, each carried out in triplicate. C) Bal infectivity of de novo produced virus by pretreated infected PBMCs in absence of drug during three consecutive periods of 24 h. Values are expressed relative to untreated control cultures and represent the mean +/− SEM of at least three independent experiments, each carried out in triplicate. D) Infectivity of de novo produced transmitted/founder viruses REJO and THRO (subtype B) and Bal by M48U1 treated infected PBMCs in absence of drug during three consecutive periods of 24 h. Values are expressed relative to untreated control cultures. E) Infectivity of wild type (black) and M48U1-resistant (red) Bal virus produced during a 24 h period in absence of drug by pretreated infected PBMCs. Values represent the 50% Tissue Culture Infective Dose (TCID50)/ml as measured in one experiment carried out in triplicate.
PHA/IL-2 stimulated PBMCs were infected with 2 x 10^-3 multiplicity of infection (MOI) of the CCR5-tropic subtype B strain Bal for three days and subsequently washed extensively to remove the inoculum (Figure 1A). Next, cells were incubated for 24 hours with ARVs from different classes at 100x EC50 concentrations for each compound (Table 1). The virions produced from these cultures were then quantified in quadruplicate by a Gag p24 capture ELISA [18].
Next, we evaluated whether these ARVs affected the infectivity of the virus produced. PBMCs were infected as described above and were washed extensively to remove inhibitor and incubated in fresh medium for a new round of viral replication. After 24 h, supernatant was harvested, and then assessed for its ability to infect TZM-bl cells using identical viral inocula (based on equal amounts of Gag p24). The obtained viral titers were expressed as a percentage, relative to the untreated control cultures (Figure 1C). […] A smaller loss in titer was observed after treatment with the PIs saquinavir (relative titer of 47%) and lopinavir (relative titer of 14%), and the carbohydrate binding protein griffithsin (relative titer of 31%). The same samples were assayed in a multi-cycle infectivity assay with PBMCs, with similar results (Figure 1C). […]

H9+ cells = details: pretreatment of infected cells, syncytium formation; cited from earlier work
From the text: We hypothesized that M48U1 associates with gp120 molecules expressed on the cell membrane of infected cells prior to viral budding. If M48U1 dissociates very slowly from its target and is retained after washing, this could cause the production of defective virions. However, if this were the case, one would expect a similar attenuation effect for the tight-binding RT inhibitors UC781 and TMC120.

[3] = Human immunodeficiency virus 1, PBMC

Compound | EC50 (HIV-1 Bal [1]; [3]) | lower Gag p24 concentration in culture supernatant vs untreated control (HIV-1 Bal infected PBMCs) | relative titer of de novo produced virions (HIV-1 Bal [2]) | reduction in the infectivity of de novo produced virus (H9+ cells) | EC50 (HIV-1 Bal [1]) | times less infectious than virions from control cultures (HIV-1 Bal [2]; 72 hours post-exposure, TZM-bl cells and PBMCs)
Cc1cc(C)c(Nc2ccnc(Nc3ccc(C#N)cc3)n2)c(C)c1 [Dapivirine (TMC120)] | 0.005 µM |  |  |  |  | 
Cc1cccc(C)c1OCC(=O)N[C@@H](Cc1ccccc1)[C@@H](O)C[C@H](Cc1ccccc1)NC(=O)[C@H](C(C)C)N1CCCNC1=O [Lopinavir (LPV)] | 0.04 µM | 0.5-1 log | 14% |  |  | 
Cc1nnc(C(=O)NC(C)(C)c2nc(C(=O)NCc3ccc(F)cc3)c(O)c(=O)n2C)o1 [Raltegravir (RLT)] | 0.018 µM |  |  |  |  | 
CC(C)(C)NC(=O)[C@@H]1C[C@@H]2CCCC[C@@H]2CN1C[C@@H](O)[C@H](Cc1ccccc1)NC(=O)[C@H](CC(N)=O)NC(=O)c1ccc2ccccc2n1 [Saquinavir (SQV)] | 0.035 µM | 0.5-1 log | 47% |  |  | 
C[C@H](Cn1cnc2c(N)ncnc21)OCP(=O)(O)O [Tenofovir (TFV)] | 4.8 µM |  |  |  |  | 
CC(C)=CCOc1cc(NC(=S)c2ccoc2C)ccc1Cl [UC781] | 0.035 µM |  | 75% | fivefold reduction |  | 
Griffithsin (GRFT): carbohydrate binding protein, binds glycans on gp120 |  |  | 31% |  | 0.0015 µM | two

Reference: paper PMC3571899, “M48U1 CD4 mimetic has a sustained inhibitory effect on cell-associated HIV-1 by attenuating virion infectivity through gp120 shedding” (Retrovirology, 2013)
